Series [1] deals with Male Swiss-Webster mice. In words: Analgesic efficacy: sensory block, vocalization response to cutaneous electrical stimulation after subcutaneous injection. In kind it is in vivo. To be noted: 8 mice. As to the method:
All experiments were approved by the Institutional Animal Care and Use Committee. Male Swiss-Webster mice weighing 26+3 g (mean+SD) were used. Animals had free access to food and water, and were maintained on 12-hour dark-light cycle. Prior to testing, the hair overlying the abdomen was shaved. Analgesia was assessed using response to cutaneous electrical stimulation. A current generator (model S48, Grass Instruments, Quincy, Mass.) coupled to a constant current unit (model PSIU6F, Grass Instruments, Quincy, Mass.) was used. The current was delivered to the skin surface by touching it gently with two electrodes fashioned from #25 g needles. The vocalization threshold (the current required to produce a vocalization response) was assessed prior to injection of study solutions. […] To determine analgesic duration, mice were injected with liposomal BUP compositions having 0.5 wt % and 3.5 wt % bupivacaine, respectively, formed by dilution (as necessary of formulation 3, above. Free BUP (0.5%), hyperosmotic saline (580 mM), or drug-free liposomes were used as controls. For all groups, […] of test solution was injected subcutaneously using a #25 g needle in 8 mice. After injection, sensory block was assessed at 5, 15, 30 minutes and then at 1, 1.5, 2, 3, 4.5, 6, 9, 12, 14, 16, 17, and 19 hours. Failure to vocalize in response to stimulation with threshold current was taken as analgesia. […]

A short description of series [2]: Tissue BUP post-administration: drug remaining at the site of injection (HPLC of excised tissue). In kind it is in vivo. Conditions: four hours after injection, mice, subcutaneous. The procedure:
In a separate group of mice, the amount of drug remaining at the site of injection after administration of 0.5% and 3.5% liposomal BUP (formulation 3) or 0.5% free BUP was determined. Three animals were sacrificed at 0, 0.25, 0.5, 1, 2, 4, and 8 hours after injections of all drug formulations and also at 16, 24, 48 and 96 hours after injection of the liposomal formulations. After sacrifice, a 1-cm2 circular tissue section including the entire area of injection, and extending to the peritoneum, was excised. The tissue was homogenized in 1 ml of isopropanol for 1 min, and then centrifuged at 16,000×G (Eppendorf Centrifuge 5417C, Engelsdorf, Germany). The supernatant was diluted 1:100 in isopropanol, and BUP concentration was determined using HPLC. In vivo release kinetics were done in triplicate. Results are presented in FIG. 2, where the absolute amounts remaining are expressed as mean±SD.

Series [3] concerns Male Swiss-Webster mice. Conditions: mouse, in vivo.

Each structure is given as a SMILES string. Structures can show the parent of a compound that is named as a salt.

Consider `CCCCN1CCCCC1C(=O)Nc1c(C)cccc1C` (centres unmarked) [0.5% free BUP, Bupivacaine hydrochloride], for which, in the series with Male Swiss-Webster mice [1], the “time at which analgesia was exhibited” value amounted to 30 min and the “time at which analgesia was not detected (regressed in all animals)” value stood at 2 h. Also, in series [2], the “amount remaining at the site” value worked out at 8 mg and the “injected dose remaining at the site” value is recorded as 1%. Moreover, the systemic toxic effects entry in the series with Male Swiss-Webster mice [3] is “produced toxicity”.

These data come from US6926905B2, “Liposomak compositions and methods of preparation” (Yissum Research Development Company of the Hebrew …, priority 1998, dated 2005).
